The NIST ThermoML archive (doi:10.1016/j.jct.2011.10.023)
Numbers after ± are expanded uncertainties.

Conditions: Liquid, Vibrating tube method

CCCCCCCO [heptan-1-ol]
mass density [kg/m3]
Conditions | 278.15 K | 288.15 K | 298.15 K | 308.15 K | 318.15 K | 328.15 K | 338.15 K | 348.15 K | 358.15 K
100 kPa | 832.4 ± 2.5 | 825.5 ± 2.5 | 818.5 ± 2.5 | 811.4 ± 2.5 | 804.3 ± 2.5 | 797.1 ± 2.5 | 789.7 ± 2.5 | 782.1 ± 2.5 | 774.2 ± 2.5
1000 kPa | 833 ± 2.5 | 826.1 ± 2.5 | 819.1 ± 2.5 | 812.1 ± 2.5 | 805 ± 2.5 | 797.8 ± 2.5 | 790.4 ± 2.5 | 782.9 ± 2.5 | 775.1 ± 2.5
5000 kPa | 835.4 ± 2.5 | 828.6 ± 2.5 | 821.8 ± 2.5 | 814.7 ± 2.5 | 807.9 ± 2.5 | 800.9 ± 2.5 | 793.7 ± 2.5 | 786.3 ± 2.5 | 778.7 ± 2.5
10000 kPa | 838.3 ± 2.5 | 831.7 ± 2.5 | 824.9 ± 2.5 | 818.3 ± 2.5 | 811.4 ± 2.5 | 804.6 ± 2.5 | 797.5 ± 2.5 | 790.4 ± 2.5 | 783 ± 2.5
15000 kPa | 841.2 ± 2.5 | 834.7 ± 2.5 | 828.1 ± 2.5 | 821.5 ± 2.5 | 814.8 ± 2.5 | 808.1 ± 2.5 | 801.2 ± 2.5 | 794.2 ± 2.5 | 787.1 ± 2.5
20000 kPa | 843.9 ± 2.5 | 837.6 ± 2.5 | 831.1 ± 2.5 | 824.6 ± 2.5 | 818.1 ± 2.5 | 811.5 ± 2.5 | 804.7 ± 2.5 | 797.9 ± 2.5 | 790.9 ± 2.5
25000 kPa | 846.4 ± 2.5 | 840.4 ± 2.5 | 833.9 ± 2.5 | 827.6 ± 2.5 | 821.2 ± 2.5 | 814.7 ± 2.5 | 808.1 ± 2.5 | 801.4 ± 2.5 | 794.6 ± 2.5
30000 kPa | 849.2 ± 2.5 | 843.1 ± 2.5 | 836.7 ± 2.5 | 830.5 ± 2.5 | 824.2 ± 2.5 | 817.8 ± 2.5 | 811.4 ± 2.5 | 804.8 ± 2.5 | 798.2 ± 2.5
35000 kPa | 851.7 ± 2.5 | 845.7 ± 2.5 | 839.5 ± 2.5 | 833.3 ± 2.5 | 827.1 ± 2.5 | 820.8 ± 2.5 | 814.6 ± 2.5 | 808.1 ± 2.5 | 801.5 ± 2.5
40000 kPa | 854.2 ± 2.5 | 848.2 ± 2.5 | 842.1 ± 2.5 | 836 ± 2.5 | 829.9 ± 2.5 | 823.8 ± 2.5 | 817.5 ± 2.5 | 811.3 ± 2.5 | 804.9 ± 2.5
45000 kPa | 856.6 ± 2.5 | 850.7 ± 2.5 | 844.7 ± 2.5 | 838.7 ± 2.6 | 832.7 ± 2.6 | 826.6 ± 2.6 | 820.6 ± 2.6 | 814.3 ± 2.6 | 808.1 ± 2.6
50000 kPa | 859 ± 2.6 | 853.1 ± 2.6 | 847.2 ± 2.6 | 841.3 ± 2.6 | 835.4 ± 2.6 | 829.4 ± 2.6 | 823.4 ± 2.6 | 817.3 ± 2.6 | 811.1 ± 2.6
55000 kPa | 861.3 ± 2.6 | 855.5 ± 2.6 | 849.7 ± 2.6 | 843.8 ± 2.6 | 838 ± 2.6 | 832.1 ± 2.6 | 826.2 ± 2.6 | 820.2 ± 2.6 | 814.1 ± 2.6
60000 kPa | 863.4 ± 2.6 | 857.8 ± 2.6 | 852.1 ± 2.6 | 846.1 ± 2.6 | 840.4 ± 2.6 | 834.5 ± 2.6 | 828.7 ± 2.6 | 822.8 ± 2.6 | 816.9 ± 2.6
